The values that follow come from publication PMC7034088, “Effect of verapamil on the pharmacokinetics of hydroxycamptothecin and its potential mechanism” (Pharmaceutical Biology, 2020).

By AUC(0-t) is commonly meant the area under the concentration-time curve up to a stated or last time point. A word on the Cmax: it is the maximum level reached in the sampled fluid or tissue. One may read the MRT as a mean duration of stay, worked out from the concentration-time curve. One may read the Tmax as the time from dosing to the highest level. What is called half-life is the time needed for the level to fall by half in the phase considered. In general, Papp B→A refers to how fast a substance crosses the layer from the basolateral side. Usually efflux ratio stands for a quotient of directional permeabilities that is used to spot active efflux.

The structures appear in SMILES notation. Where two headings read alike, the source gives them in different places.

Data set [1] is described as follows: In vivo pharmacokinetic study of oral HCPT in rats with or without verapamil pre-treatment. The note with it: male, Sprague-Dawley, rat, plasma, 50 mg/kg, HCPT 50 mg/kg intragastric/oral, n = 6, Mean ± S.D.; for CL/F: read-out: CLz/F (oral clearance) (converted). The method, then: Male Sprague–Dawley rats weighing 230–250 g were provided by Shanghai SLAC Laboratory Animal Co., Ltd (Shanghai, China). Rats were bred in a breeding room at 25 °C with 60 ± 5% humidity and a 12 h dark-light cycle. Tap water and normal chow were given ad libitum. All of the experimental animals were housed under the above conditions, for a 3-day acclimation period and fasted overnight before the experiments. All experimental procedures and protocols were reviewed and approved by the Animal Care and Use Committee of China–Japan Union Hospital of Jilin University and were in accordance with the National Institutes of Health guidelines regarding the principles of animal care.
Rats were divided into two groups of six animals each, with or without pre-treatment of verapamil. The pre-treatment of verapamil on the test group was at a dose of 10 mg/kg/day (dissolved directly in normal saline containing 0.5% methylcellulose at a concentration of 2 mg/mL) for 7 days. Next, 50 mg/kg HCPT was administrated orally. Blood samples (200 μL) were collected into heparinized tubes via the oculi choroidal vein at 0.083, 0.33, 0.5, 1, 2, 4, 6, 8, 10, 12, 24, and 36 h after the oral administration of […]. The blood samples were centrifuged at 3500 rpm for 5 min. The plasma samples that were obtained were stored at −40 °C until analysis.
To obtain 100 μL aliquot of plasma sample, 20 μL methanol and 180 μL internal standard methanol solution (2 ng/mL) were added and vortexed for 60 s to mix in a 1.5 mL polypropylene tube, and were centrifuged at 12,000 rpm for 10 min. The supernatant was removed into an injection vial, and a 3 μL aliquot was injected into the LC-MS/MS system for analysis.
The determination of HCPT was performed on an Agilent 1290 series liquid chromatography system and an Agilent 6470 triple-quadruple mass spectrometer (Palo Alto, CA). The HPLC/MS conditions and sample preparation were basically according to a validated HPLC method described before (Zhang et al. [2019]). The chromatographic analysis of HCPT was performed on a Waters X-Bridge C18 column (3.0 × 100 mm, i.d.; 3.5 μm, Waters Corporation, Milford, MA ) at room temperature (25 °C). The mobile phase was water (containing 0.1% formic acid) and acetonitrile (30:70, v: v) with isocratic elution at a flow rate of 0.2 mL/min, and the analysis time was 4 min.
The mass scan mode was positive MRM mode. The precursor ion and product ion are m/z 365.20→321.10 for HCPT and m/z 349.25→305.15 for IS. The collision energy for HCPT and IS were 30 and 20 eV, respectively. The MS/MS conditions were optimized as follows: fragmentor, 110 V; capillary voltage, 3.5 kV; Nozzle voltage, 500 V; nebulizer gas pressure (N2), 40 psig; drying gas flow (N2), 10 L/min; gas temperature, 350 °C; sheath gas temperature, 400 °C; sheath gas flow, 11 L/min.
Pharmacokinetic parameters, including the area under the plasma concentration–time curve (AUC), maximal plasma concentration (Cmax), the time for the maximal plasma concentration (Tmax), and the mean residence time (MRT), were calculated using the DAS 3.0 pharmacokinetic software (Chinese Pharmacological Association, Anhui, China).

A short description of data set [2]: Metabolic stability of HCPT in rat liver microsomes with or without verapamil. Type of data set: in vitro ADME. Conditions: for microsomal CLint at 1 µM: read-out: intrinsic clearance rate. Here is the method:
The metabolic stability of HCPT was investigated in rat liver microsomes with or without verapamil. The detailed methods were similar to those reported before (Wang et al. [2017]; Yan et al. [2017]). Briefly, 30 μL rat liver microsome (20 mg/mL), 12 μL HCPT solution (100 μM) and 1113 μL PBS buffer (0.1 M, pH 7.4) were added to the centrifuge tubes on ice. After a 5-min preincubation at 37 °C, the NADPH-generating system (45 μL) was added into the microsomal suspension to initiate the reaction. Meanwhile, the effects of verapamil or ketoconazole (a positive CYP3A4 inhibitor) on the metabolic stability of HCPT were investigated by adding 10 μM of verapamil or ketoconazole (12 μL, final concentration of 0.1 μM) to rat liver microsomes and preincubating them for 30 min at 37 °C, followed by the addition of NADPH-generating system. Aliquots of 100 μL were collected from the reaction volumes at 0.083, 0.167, 0.33, 0.5, 1, 2, 4, 8, 12, 24, and 36 h after the addition of HCPT, and 200 μL ice-cold acetonitrile containing esculin was added to terminate the reaction. All the experiments were performed in triplicate. The subsequent sample preparation method was the same as the plasma sample preparation method, and the concentration of HCPT was determined by LC-MS.
The in vitro half-life (t1/2) was obtained using the equation: t1/2 = 0.693/k; V (μL/mg) = volume of incubation (μL)/protein in the incubation (mg); intrinsic clearance (Clint) (μL/min/mg protein) = V × 0.693/t1/2.
On the technique in general: Liver microsomes are vesicles of endoplasmic reticulum, rich in cytochrome P450 enzymes.

Data set [3] is described as follows: Bidirectional transport of HCPT in the Caco-2 cell transwell model with or without verapamil. Conditions: human; for efflux ratio at 2 µM: Caco-2, pH 7.4, efflux ratio, Caco-2 transwell, HCPT 2 μM. Here is the method:
(§1) The Caco-2 cell line was obtained from the American Type Culture Collection (Manassas, VA), and it was performed according to the previous study (Liu et al. [2019]). The Caco-2 cells were cultured in DMEM high glucose medium containing 15% FBS, 1% NEAA, and 100 U/mL penicillin and streptomycin. The cells were cultured at 37 °C with 5% CO2. For transport studies, the cells at passage 40 were seeded on transwell polycarbonate insert filters (1.12 cm^2 surface, 0.4 μm pore size, 12 mm diameter; Corning Co-star Corporation, Corning, MA) in 12-well plates at a density of 1 × 10^5 cells/cm^2. Cells were allowed to grow for 21 days. For the first seven days, the medium was replaced every two days, and then daily. The transepithelial electrical resistance (TEER) of the monolayer cells was measured using Millicell ERS-2 (Millipore Corporation, Billerica, MA), and TEER exceeding 400 Ω·cm^2 was used for the flux experiment. […] The alkaline phosphatase activity was validated using an Alkaline Phosphatase Assay Kit. The qualified monolayers were used for transport studies.
(§2) The Caco-2 cell transwell model was employed to investigate the transport of HCPT in the presence or absence of verapamil. The cell monolayers were rinsed twice with warm (37 °C) Hanks’ balanced salt solution (HBSS) before the transport experiments. After that, the cells were incubated at 37 °C for 20 min. HCPT was added to either apical or basolateral side to incubate with the cell monolayers in fresh incubation medium for the indicated times at 37 °C, after preincubation. The volume of incubation medium on the apical and basolateral sides was 0.5 mL and 1.5 mL, respectively, and a 100 μL aliquot of the incubation solution was withdrawn at the indicated time points from the receiver compartment and replaced with the same volume of fresh pre-warmed HBSS buffer. The permeability of HCPT (2 μM) in all of the above conditions for both directions, i.e., from the apical (AP) side to the basolateral (BL) side and from the BL side to the AP side, was measured after incubation for 30, 60, 90, and 120 min at 37 °C. In addition, the efflux activity of P-gp was validated using a typical P-gp substrate digoxin (25 μM).
(§3) The apparent permeability coefficient (Papp) was calculated using the equation of Artursson and Karlsson: Papp=(ΔQ/Δt)×[1/(A×C0)] where Papp is the apparent permeability coefficient (cm/s), ΔQ/Δt (μmol/s) is the rate at which the compound appears in the receiver chamber, C0 (μmol/L) is the initial concentration of the compound in the donor chamber, and A (cm^2) represents the surface area of the cell monolayer. Data were collected from three separate experiments, and each was performed in triplicate.

The next data set concerns Caco-2 cell monolayers. The description is as above. The note with it: Caco-2 transwell, digoxin 25 μM, with addition of verapamil. The method, then:
as §1, §2, §3

For another data set, the system named is P-gp. The data set is described as above. The note with it: human, Caco-2, efflux ratio, Caco-2 transwell, digoxin 25 μM (P-gp substrate validation), without verapamil. Here is the method: as §1, §2, §3
Where [4] appears, read: pre-treatment of verapamil 10 mg/kg/day for 7 days.
Where [5] appears, read: pH 7.4, with verapamil, final concentration 0.1 µM, in the presence of verapamil (preincubation 30 min at 37 °C).

For `CC[C@@]1(O)C(=O)OCc2c1cc1n(c2=O)Cc2cc3cc(O)ccc3nc2-1` [HCPT, Hydroxycamptothecin], in data set [1] (control (no verapamil)), the AUC(0-t) is 0.66 ± 0.1 µg·h/mL, the peak concentration (Cmax) was 0.092 ± 0.0113 µg/mL, the mean residence time MRT was found to be 9.61 ± 0.55 h and the Tmax was found to be 1.12 ± 0.14 h. Further, in data set [1] (control (no verapamil)), the half-life is 17.7 ± 3.6 h and the CL/F was 63.9 L/h/kg. In data set [1] (setting [4]), the AUC(0-t) was 1.14 ± 0.29 µg·h/mL, the Cmax was determined as 0.125 ± 0.0135 µg/mL, the MRT was determined as 11.4 ± 0.78 h and the time to peak (Tmax) was determined as 0.89 ± 0.09 h. In data set [1] (setting [4]), the half-life is 23 ± 6.71 h and the CL/F was 33 L/h/kg. Besides, in data set [2] (setting [5]), the half-life at 1 µM was found to be 0.807 ± 0.0085 h and the microsomal CLint at 1 µM is 28.6 ± 0.3 µL/min/mg. Also, in data set [2] (pH 7.4, without verapamil), the half-life at 1 µM amounted to 0.585 ± 0.00533 h and the microsomal CLint at 1 µM came out at 39.5 ± 0.42 µL/min/mg. Further, in data set [3] (Caco-2, pH 7.4), the Papp B→A at 2 μM came to 2.05 nm/s. Also, the efflux ratio at 2 µM in data set [3] (in the presence of verapamil) came out at 1.21. For the same compound, in data set [3] (without verapamil), the efflux ratio at 2 µM was 1.82.

Take `C[C@H]1O[C@@H](O[C@H]2[C@@H](O)C[C@H](O[C@H]3[C@@H](O)C[C@H](O[C@H]4CC[C@@]5(C)[C@H](CC[C@@H]6[C@@H]5C[C@@H](O)[C@]5(C)[C@@H](C7=CC(=O)OC7)CC[C@]65O)C4)O[C@@H]3C)O[C@@H]2C)C[C@H](O)[C@@H]1O` [digoxin]: the “efflux ratio, effect of addition of verapamil” value in the data set with Caco-2 cell monolayers is “abrogated it”. Also, the efflux ratio at 25 µM in the data set with P-gp was determined as 11.
